Article PMC7139804 (2020)

Assays:
[1] = test system: CPG-tel26 (DNA, G4) TTAGGGTTAGGGTTAGGGTTAGGGTT; assay: G4-CPG affinity chromatography; settings: 50 mM KCl; washing solution with 10% DMSO, 10% ethanol; oligonucleotide on CPG; errors within ± 2%
[2] = test system: CPG-cmyc (DNA, G4) TGGGGAGGGTGGGGAGGGTGGGGAAGGTGGGGA; assay: G4-CPG affinity chromatography; settings: 50 mM KCl; washing solution with 10% DMSO, 10% ethanol; oligonucleotide on CPG; errors within ± 2%
[3] = test system: CPG-ds27 (DNA, hairpin) CGCGAATTCGCGTTTCGCGAATTCGCG; assay: G4-CPG affinity chromatography; settings: 50 mM KCl; washing solution with 10% DMSO, 10% ethanol; oligonucleotide on CPG; errors within ± 2%
[4] = test system: tel26 (DNA, G4) TTAGGGTTAGGGTTAGGGTTAGGGTT; assay: fluorescence titration and Job plot; settings: 20 mM KCl, 5 mM KH2PO4; 10% DMSO, pH 7, 20 °C; 2 µM ligand, DNA up to 10 µM; no tight binding
[5] = test system: cmyc (DNA, G4) TGGGGAGGGTGGGGAGGGTGGGGAAGGTGGGGA; assay: fluorescence titration and Job plot; settings: 20 mM KCl, 5 mM KH2PO4; 10% DMSO, pH 7, 20 °C; 2 µM ligand, DNA up to 10 µM; no tight binding
[6] = test system: ds27 (DNA, hairpin) CGCGAATTCGCGTTTCGCGAATTCGCG; assay: fluorescence titration and Job plot; settings: 20 mM KCl, 5 mM KH2PO4; 10% DMSO, pH 7, 20 °C; 2 µM ligand, DNA up to 10 µM; no tight binding
[7] = test system: tel26 (DNA, G4) TTAGGGTTAGGGTTAGGGTTAGGGTT; assay: CD melting at 290 nm; settings: 20 mM KCl, 5 mM KH2PO4; 10% DMSO, pH 7; 2 µM DNA, 12 µM compound (1:6)
[8] = test system: tel26 (DNA, G4) TTAGGGTTAGGGTTAGGGTTAGGGTT; assay: fluorescence titration, independent equivalent-sites fit; settings: 20 mM KCl, 5 mM KH2PO4, 10% DMSO, pH 7, 20 °C, 2 µM ligand
[9] = test system: cmyc (DNA, G4) TGGGGAGGGTGGGGAGGGTGGGGAAGGTGGGGA; assay: as above; settings: 20 mM KCl, 5 mM KH2PO4, 10% DMSO, pH 7, 20 °C, 2 µM ligand
[10] = test system: ds27 (DNA, hairpin) CGCGAATTCGCGTTTCGCGAATTCGCG; assay: as above; settings: 20 mM KCl, 5 mM KH2PO4, 10% DMSO, pH 7, 20 °C, 2 µM ligand

## CN(C)CCCN1C(=O)c2ccc3c4c(c(NCCOCCOCCNc5cc6c7c(c(Br)cc8c7c5C(=O)N(CCCCCC(=O)O)C8=O)C(=O)N(CCCCCC(=O)O)C6=O)cc(c24)C1=O)C(=O)N(CCCN(C)C)C3=O
[1]
  Bound Ligand (%): 68%
[2]
  Bound Ligand (%): 79%
[3]
  Bound Ligand (%): 33%
[4]
  binding: weak
[5]
  binding: weak
[6]
  binding: weak

## CN(C)CCCNc1cc2c3c(c(NCCOCCOCCNc4cc5c6c(ccc7c6c4C(=O)N(CCCCCC(=O)O)C7=O)C(=O)N(CCCCCC(=O)O)C5=O)cc4c3c1C(=O)N(CCCN(C)C)C4=O)C(=O)N(CCCN(C)C)C2=O
[1]
  Bound Ligand (%): 90%
[2]
  Bound Ligand (%): 87%
[3]
  Bound Ligand (%): 71%

## CN(C)CCCN1C(=O)c2ccc3c4c(c(NCCCCCCCNc5cc6c7c(ccc8c7c5C(=O)N(CCCCCC(=O)O)C8=O)C(=O)N(CCCCCC(=O)O)C6=O)cc(c24)C1=O)C(=O)N(CCCN(C)C)C3=O
[1]
  Bound Ligand (%): 77%
[3]
  Bound Ligand (%): 61%

## CN(C)CCCN1C(=O)c2cc(NCCOCCOCCNc3cc4c5c(c(Br)cc6c5c3C(=O)N(CCCCCC(=O)O)C6=O)C(=O)N(CCCCCC(=O)O)C4=O)c3c4c(cc(Br)c(c24)C1=O)C(=O)N(CCCN(C)C)C3=O
[1]
  Bound Ligand (%): 73%
[3]
  Bound Ligand (%): 38%

## CCCNc1cc2c3c(c(NCCCN(C)C)cc4c3c1C(=O)N(CCCN(C)C)C4=O)C(=O)N(CCCN(C)C)C2=O
[1]
  Bound Ligand (%): 92%
[3]
  Bound Ligand (%): 46%

## CCCNc1cc2c3c(ccc4c3c1C(=O)N(CCCN(C)C)C4=O)C(=O)N(CCCN(C)C)C2=O
[1]
  Bound Ligand (%): 85%
[2]
  Bound Ligand (%): 95%
[3]
  Bound Ligand (%): 50%

## CN(C)CCCN1C(=O)c2cc(NCCOCCOCCNc3cc4c5c(ccc6c5c3C(=O)N(CCCCCC(=O)O)C6=O)C(=O)N(CCCCCC(=O)O)C4=O)c3c4c(cc(Br)c(c24)C1=O)C(=O)N(CCCN(C)C)C3=O
[1]
  Bound Ligand (%): 67%
[2]
  Bound Ligand (%): 64%
[3]
  Bound Ligand (%): 29%

## CN(C)CCCN1C(=O)c2cc(NCCCCCCCNc3cc4c5c(ccc6c5c3C(=O)N(CCCCCC(=O)O)C6=O)C(=O)N(CCCCCC(=O)O)C4=O)c3c4c(cc(Br)c(c24)C1=O)C(=O)N(CCCN(C)C)C3=O
[1]
  Bound Ligand (%): 75%
[2]
  Bound Ligand (%): 79%
[3]
  Bound Ligand (%): 71%

## CN(C)CCCN1C(=O)c2ccc3c4c(c(NCCOCCOCCNc5cc6c7c(ccc8c7c5C(=O)N(CCCCCC(=O)O)C8=O)C(=O)N(CCCCCC(=O)O)C6=O)cc(c24)C1=O)C(=O)N(CCCN(C)C)C3=O
[1]
  Bound Ligand (%): 85%
[2]
  Bound Ligand (%): 79%
[3]
  Bound Ligand (%): 34%

## CN(C)CCCN1C(=O)c2ccc3c4c(c(NCCCCCCCN)cc(c24)C1=O)C(=O)N(CCCN(C)C)C3=O
[1]
  Bound Ligand (%): 100%
[2]
  Bound Ligand (%): 97%
[3]
  Bound Ligand (%): 48%

## CN(C)CCCN1C(=O)c2ccc3c4c(c(NCCOCCOCCN)cc(c24)C1=O)C(=O)N(CCCN(C)C)C3=O
[1]
  Bound Ligand (%): 97%
[3]
  Bound Ligand (%): 41%

## CN(C)CCCN1C(=O)c2ccc3c4c(c(NCCOCCO)cc(c24)C1=O)C(=O)N(CCCN(C)C)C3=O
[7]
  ΔTm: +15 °C
[1]
  Bound Ligand (%): 99%
[2]
  Bound Ligand (%): 99%
[3]
  Bound Ligand (%): 30%
[8]
  Kb: 2.4 (±0.1) × 10^7 M^−1
[9]
  Kb: 2.6 (±0.2) × 10^7 M^−1
[10]
  Kb: 1.9 (±0.2) × 10^7 M^−1
